{"source": "patent US8722626B2", "about": "“Method for controlling fibrosis and other pathological deposits in tissues comprising administering a GHRP-6 composition” (Centro de Ingenieria Genetica y Biotecnologia, priority 2006, dated 2014)", "key": {"[1]": {"tested_on": "human keloid fragments xeno-transplanted in athymic mice", "assay": "Human keloid fragments xeno-transplanted into athymic mice (Example 7)", "type": "in vivo, mouse", "from_the_text": "To study the effect of peptides GHRP-6, GHRP-2, Hexarelin and/or Ghrelin in eradicating the pathological deposits of physiological material in the skin, human keloid fragments were xeno-transplanted into the dorsal region in athymic mice. After 72 hrs of evolution, to corroborate grafting and viability of xeno-transplants, the animals (N=6) were randomly distributed into the following experimental groups: • A—Saline control group (vehicle of the active principles). • B—Group receiving GHRP-6. • C—Group receiving GHRP-2. • D—Group receiving Ghrelin. • E—Group receiving Hexarelin. • Treatments were applied once every 24 hrs during 7 days. The substances were infiltrated at the edges in the implants, for local bioavailability of the active principles, at dosages from 5 micrograms to 1 milligram. After the treatment period, the animals were sacrificed and the implants extracted to evaluate the pharmacological response to every substance. Samples were weighed and fragmented for histological studies and biochemical determinations of collagen. The fragments for histological studies were fixed in 10% formalin neutral, and those fragments for biochemical analyses were stored at −70° C. • The parameters studied were: • a—Wet weight of the graft collected. • b—Hydroxiproline content in the tissue. • c—Number of microscopic fields with tissue positive to Picrosirius red staining and trichromic Masson's staining."}, "[2]": {"tested_on": "male APP transgenic mice expressing the beta-amiloid precursor protein", "assay": "Beta-amiloid protein deposition in brain of APP transgenic mice (Example 5)", "type": "in vivo, mouse", "design": "SODt (oxidative stress marker) / Catalase (oxidative stress marker) / HPT (oxidative stress marker) / MDA (oxidative stress marker): unit not given here", "settings": "8 weeks; for Catalase (oxidative stress marker) / HPT (oxidative stress marker) / MDA (oxidative stress marker) / SODt (oxidative stress marker): brain tissues; for No. of deposits positive to Congo Red / No. of deposits positive to beta-amiloid / Size of amiloid plaques: brain", "description": "This study was conducted to evaluate the influence of the long-term administration (8 weeks) of the GHRP-6 on the biochemical and morphological markers in the brain of transgenic mice expressing the beta-amiloid precursor protein, these markers also indicating the progression of the central nervous system damage. For the present study, 20-25 g in body weight male APP transgenic mice were acquired, expressing the beta-amiloid precursor protein. Animals (N=30) were randomly distributed in:\nPlacebo group—Physiological saline solution 0.9%.\nDosage I group—GHRP-6 at 50 μg/kg of body weight in saline solution.\nDosage II group—GRHP-6 at 100 μg/kg of body weight in saline solution.\nTreatments were applied by the intraperitoneal route in 1 ml, five days a week during 8 weeks, with animals receiving 40 administrations of GHRP-6. We knew from previous exploratory pilot studies that this period of time was sufficient for improving cognitive and motor skills in animals under stress.\nAfter 8 weeks of treatment, mice were sacrificed by anesthesia overdose, and perfused in situ with saline solution. Encephala were extracted, one encephalon was frozen in dry-ice and the other was fixed in 4% para-formaldehyde neutral. Samples were cryo-sliced at 10 μm and slices were stained with hematoxylin/eosin, Congo Red, or incubated with an antibody specific for the beta-amiloid protein. Morphometric procedures were carried out by microscopic imaging capture by a camera connected to the microscope, and the images were analyzed with the DIGIPAT software.\nThe number of fibrillar deposits of the beta-amiloid protein positive to Congo Red staining.\nThe number of foci immunoreactive to the antibody that recognizes the beta-amiloid protein.\nSize of the beta-amiloid plaques in the brain, recognized at 200× and 400× magnifications (μm^2).\nBrain concentration of myo-inositol as indicator of aging and brain metabolism deterioration (μmol/g of tissue)."}, "[3]": {"tested_on": "pulmonary fibrosis in rats (Bleomycin)", "assay": "Control of pulmonary fibrosis induced by Bleomycin in rats (Example 4)", "type": "in vivo, rat", "settings": "4 weeks; for Grade 0 pulmonary fibrosis (no evidences of fibrosis), animals per group / Grade 1 pulmonary fibrosis (predominantly vascular), animals per group / Grade 2 pulmonary fibrosis (additional peri-bronchial compromise), animals per group / Grade 3 pulmonary fibrosis (also interalveolar septum), animals per group: N = 15; for OH—P content (hydroxiproline) in lungs: end of treatment, 15 fragments per group", "description": "In this case, the process as induced by sustained administration of the anti-neoplasic agent Bleomycin (Ble) at a 2.5 U/kg dosage twice a week during 4 weeks. […] This point forward, the administration of Ble was suspended and treatment with the pharmaceutical composition containing the GHRP-6 was started. The treatment was applied once daily, at 100 and 400 μg/kg in a 1 ml volume by intraperitoneal route during 4 weeks. […] When treatments concluded, the animals were sacrificed by anesthesia overdose and lungs and blood serum were collected. Tissue fragments were fixed in formalin neutral and processed by hematoxylin/eosin staining, or by Masson's trichromic staining, to evaluate the general damage and the severity of fibrotic indurations. Other fragments of lung tissues were stored at −70° C. until processing to determine the content of hydroxiproline by acid hydrolysis in 1N HCl, and also the […] levels of redox metabolism markers. Biochemical determinations were carried out by calculating the total protein content by the Bradford's method. Histological evaluation of the fibro-proliferative reaction in lungs includes the process of peri-vascular, peri-bronchial and septal fibrosis. The overall grade of pulmonary fibrosis was established according to the extension and intensity of the process in these three segments, to determine the percent of animals affected or unaffected at the end of the treatment with the GHRP-6. The numbers of animals in every group with fibrotic lungs according to the severity of fibrosis are:\nGrade 0—No evidences of fibrosis or only thin and diffuse fiber or areolar material foci present, without respiratory compromise.\nGrade 1—Fibrosis predominantly vascular in more than 75% of arterioles and capillaries.\nGrade 2—Fibrosis predominantly vascular in more than 75% of arterioles and capillaries, with additional peri-bronchial compromise.\nGrade 3—Fibrosis predominantly vascular in more than 75% of arterioles and capillaries, with additional peri-bronchial compromise. Fibrotic material is also detected in the interalveolar septum."}, "[4]": {"settings": "infiltrated at the edges in the implants once every 24 hrs during 7 days, 5 micrograms to 1 milligram"}, "[5]": {"settings": "Dosage I: 50 μg/kg i.p. five days a week"}, "[6]": {"settings": "Dosage II: 100 μg/kg i.p. five days a week"}, "[7]": {"settings": "Dosage I: 100 μg/kg i.p. once daily"}, "[8]": {"settings": "Dosage II: 400 μg/kg i.p. once daily"}}}
{"substance": "GHRP-6", "values": [{"measurement": "No. of fields positive to collagen-specific staining", "setting": "[1]; Picrosirius red and trichromic Masson's staining, 4× and 10× averaged, infiltrated once every 24 hrs during 7 days", "result": 11.45}, {"measurement": "No. of microscopic fields with mast cells (20X magnif.)", "setting": "[1]; aniline blue staining, infiltrated once every 24 hrs during 7 days", "result": "9.54 ± 2.15"}, {"measurement": "Hydroxiproline content in the tissue", "setting": "[1]; [4]", "result": "88.27 ± 4.61", "unit": "µg/g"}, {"measurement": "Wet weight of the graft collected", "setting": "[1]; [4]", "result": "6.71 ± 1.18", "unit": "a grams"}, {"measurement": "Myo-inositol concentration in the brain.", "setting": "[2]; [5]", "result": "49.35 ± 10 μmol/g of tissue"}, {"measurement": "Myo-inositol concentration in the brain.", "setting": "[2]; [6]", "result": "27.45 ± 8.61 μmol/g of tissue"}, {"measurement": "Catalase (oxidative stress marker)", "setting": "[2]; Dosage I: 50 μg/kg i.p.", "result": "81.6 ± 15.25"}, {"measurement": "HPT (oxidative stress marker)", "setting": "[2]; Dosage I: 50 μg/kg i.p.", "result": "54.3 ± 11.87"}, {"measurement": "MDA (oxidative stress marker)", "setting": "[2]; Dosage I: 50 μg/kg i.p.", "result": "0.77 ± 1.56"}, {"measurement": "SODt (oxidative stress marker)", "setting": "[2]; Dosage I: 50 μg/kg i.p.", "result": "611.17 ± 44.79"}, {"measurement": "Catalase (oxidative stress marker)", "setting": "[2]; Dosage II: 100 μg/kg i.p.", "result": "60.18 ± 13.67"}, {"measurement": "HPT (oxidative stress marker)", "setting": "[2]; Dosage II: 100 μg/kg i.p.", "result": "21.25 ± 5.44"}, {"measurement": "MDA (oxidative stress marker)", "setting": "[2]; Dosage II: 100 μg/kg i.p.", "result": "0.4 ± 0.02"}, {"measurement": "SODt (oxidative stress marker)", "setting": "[2]; Dosage II: 100 μg/kg i.p.", "result": "863.22 ± 50.3"}, {"measurement": "No. of deposits positive to Congo Red", "setting": "[2]; [5]", "result": "21.78 ± 6.57"}, {"measurement": "No. of deposits positive to beta-amiloid", "setting": "[2]; [5]", "result": "15.11 ± 3.27"}, {"measurement": "Size of amiloid plaques", "setting": "[2]; [5]", "result": "15.51 ± 6.44", "unit": "μm^2"}, {"measurement": "No. of deposits positive to Congo Red", "setting": "[2]; [6]", "result": "14.52 ± 4.18"}, {"measurement": "No. of deposits positive to beta-amiloid", "setting": "[2]; [6]", "result": "13.58 ± 4.61"}, {"measurement": "Size of amiloid plaques", "setting": "[2]; [6]", "result": "10.88 ± 4.1", "unit": "μm^2"}, {"measurement": "Grade 0 pulmonary fibrosis (no evidences of fibrosis), animals per group", "setting": "[3]; [7]", "result": 3}, {"measurement": "Grade 1 pulmonary fibrosis (predominantly vascular), animals per group", "setting": "[3]; [7]", "result": 10}, {"measurement": "Grade 2 pulmonary fibrosis (additional peri-bronchial compromise), animals per group", "setting": "[3]; [7]", "result": 2}, {"measurement": "Grade 3 pulmonary fibrosis (also interalveolar septum), animals per group", "setting": "[3]; [7]", "result": 0}, {"measurement": "OH—P content (hydroxiproline) in lungs", "setting": "[3]; [7]", "result": "91.24 ± 16.84 μg/g of total proteins"}, {"measurement": "Grade 0 pulmonary fibrosis (no evidences of fibrosis), animals per group", "setting": "[3]; [8]", "result": 8}, {"measurement": "Grade 1 pulmonary fibrosis (predominantly vascular), animals per group", "setting": "[3]; [8]", "result": 7}, {"measurement": "Grade 2 pulmonary fibrosis (additional peri-bronchial compromise), animals per group", "setting": "[3]; [8]", "result": 0}, {"measurement": "Grade 3 pulmonary fibrosis (also interalveolar septum), animals per group", "setting": "[3]; [8]", "result": 0}, {"measurement": "OH—P content (hydroxiproline) in lungs", "setting": "[3]; [8]", "result": "12.75 ± 3.61 μg/g of total proteins"}, {"measurement": "Animals classified as grade 0 (pulmonary fibrosis)", "setting": "[3]; dosage II: 400 μg/kg i.p. once daily", "result": "> 50", "unit": "%"}]}
